Assay [1] has as its system BCL-2-dependent acute lymphoblastic leukemia (ALL) cell line RS4;11. Put plainly: In vitro anti-proliferation assay (ATPlite luminescence) in RS4;11. In kind it is cell-based. To be noted: RS4;11 cells, about 72 hours, medium with 5% FBS or 10% normal human serum. The protocol: Cell antiproliferation was assayed by PerkinElmer ATPlite™ Luminescence Assay System. Briefly, the various test cancer cell lines were plated at a density of about 1×10^4 cells per well in Costar 96-well plates, and were incubated with different concentrations of compounds for about 72 hours in medium supplemented with 5% FBS or 10% normal human serum (NHS). One lyophilized substrate solution vial was then reconstituted by adding 5 mL of substrate buffer solution, and was agitated gently until the solution was homogeneous. About 50 μL of mammalian cell lysis solution was added to 100 μL of cell suspension per well of a microplate, and the plate was shaken for about five minutes in an orbital shaker at 700 rpm. This procedure was used to lyse the cells and to stabilize the ATP. Next, 50 μL substrate solution was added to the wells and microplate was shaken for five minutes in an orbital shaker at 700 rpm. Finally, the luminescence was measured by a PerkinElmer TopCount® Microplate Scintillation Counter. Such assays, carried out with a range of doses of test compounds, allowed the determination of the cellular anti-antiproliferative IC50 of the compounds of the present invention.
Background: ATP-based viability assays read luminescence as a measure of living cells.

The target of another assay is BCL-2 (Homo sapiens (Human), UniProt P10415). The experiment in a line: BCL-2 competition binding (fluorescence polarization) assay. The following applies: read-out: BCL2 IC50. The protocol:
Biological Example 1: BCL-2 Competition Binding (Fluorescence Polarization) Assay
The fluorescence-labeled 23 amino acid peptide BH3 was purchased from CalBiochem ([…]). […] This binding assay was performed in 96-well plate and with each assay contained 15 and 30 nM of labeled peptide and purified BCL-2 protein (purchased from R&D Systems, Inc). The assay buffer contained 20 mM Hepes (pH 7.0), 50 mM KCl, 5 mM MgCl2, 20 mM Na2MoO4, 0.1 mg/ml Bovine Gamma Globulin and 0.01% NP40. Compounds were diluted in DMSO and added to the final assay with concentration range from 20 μM to 2 nM. The polarization degree (mP) value was determined by BioTek Synergy II with background subtraction after 3 hours of incubation at room temperature. IC50 was calculated using Prism software with sigmoidal dose-response curve fitting. ABT-737 was used as reference compound. Such assays, carried out with a range of doses of test compounds, allowed the determination of an approximate IC50 value.

Setting [2] is: fluorescein-labeled BH3 peptide 15 nM, purified BCL-2 protein 30 nM, 3 hours incubation at room temperature.

Where a name gives a salt, the structure may show the parent alone. Read-outs that look alike come from different tables or passages of the source.

Chain of BCL-2 (P10415 whole entry): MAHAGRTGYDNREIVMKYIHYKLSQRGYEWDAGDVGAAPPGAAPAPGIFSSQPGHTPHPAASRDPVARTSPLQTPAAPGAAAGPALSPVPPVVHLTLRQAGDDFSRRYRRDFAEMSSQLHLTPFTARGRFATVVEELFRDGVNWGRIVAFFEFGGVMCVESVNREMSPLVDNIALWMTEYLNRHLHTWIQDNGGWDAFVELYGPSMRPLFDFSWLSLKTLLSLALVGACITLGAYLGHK

What is called IC50 is the concentration at which inhibition is half-maximal. As to `CC1(C)CCC(CN2CCN(c3ccc(C(=O)NS(=O)(=O)c4ccc(NCC5CCOCC5)c([N+](=O)[O-])c4)c(N4CCCSc5nc6[nH]ccc6cc54)c3)CC2)=C(c2ccc(Cl)cc2)C1` [Example 27, 4-(4-((4′-chloro-5,5-dimethyl-3,4,5,6-tetrahydro-[1,1′-biphenyl]-2-yl)methyl)piperazin-1-yl)-2-(3,4-dihydro-2H-pyrrolo[3′,2′:5,6]pyrido[2,3-b][1,4]thiazepin-1(7H)-yl)-N-((3-nitro-4-(((tetrahydro-2H-pyran-4-yl)methyl)amino)phenyl)sulfonyl)benzamide], the IC50 in assay [1] worked out at 21 nM; on BCL-2 (setting [2]), 0.3 nM.

Take `CC1(C)CCC(CN2CCN(c3ccc(C(=O)NS(=O)(=O)c4ccc(NCC5CCOCC5)c([N+](=O)[O-])c4)c(N4CCOc5ccccc54)c3)CC2)=C(c2ccc(Cl)cc2)C1` [Example 33, 4-(4-[[2-(4-chlorophenyl)-4,4-dimethylcyclohex-1-en-1-yl]methyl]piperazin-1-yl)-2-(3,4-dihydro-2H-1,4-benzoxazin-4-yl)-N-(3-nitro-4-[[(oxan-4-yl)methyl]amino]benzenesulfonyl)benzamide]: on BCL-2 (setting [2]), the IC50 came out at 42.6 nM.

As for `CC1(C)CCC(CN2CCN(c3ccc(C(=O)NS(=O)(=O)c4ccc(NCC5CCOCC5)c([N+](=O)[O-])c4)c(N4CCOc5ccncc54)c3)CC2)=C(c2ccc(Cl)cc2)C1` [Example 34, 4-(4-[[2-(4-chlorophenyl)-4,4-dimethylcyclohex-1-en-1-yl]methyl]piperazin-1-yl)-N-[3-nitro-4-[(oxan-4-ylmethyl)amino]benzenesulfonyl]-2-[2H,3H-pyrido[4,3-b][1,4]oxazin-4-yl]benzamide], the 50% inhibitory concentration (IC50) at BCL-2 (setting [2]) came out at 122 nM.

Turning to `CC1(C)CCC(CN2CCN(c3ccc(C(=O)NS(=O)(=O)c4ccc(NCC5CCOCC5)c([N+](=O)[O-])c4)c(N4CCCOc5ncccc54)c3)CC2)=C(c2ccc(Cl)cc2)C1` [Example 35, 4-(4-[[2-(4-chlorophenyl)-4,4-dimethylcyclohex-1-en-1-yl]methyl]piperazin-1-yl)-N-[3-nitro-4-[(oxan-4-ylmethyl)amino]benzenesulfonyl]-2-[2H,3H,4H-pyrido[2,3-b][1,4]oxazepin-1-yl]benzamide], the IC50 on BCL-2 (setting [2]) was found to be 27 nM.

Consider `CC1(C)CCC(CN2CCN(c3ccc(C(=O)NS(=O)(=O)c4ccc(NCC5CCOCC5)c([N+](=O)[O-])c4)c(N4CC(F)(F)COc5nc6[nH]ccc6cc54)c3)CC2)=C(c2ccc(Cl)cc2)C1` [Example 36, 4-(4-[[2-(4-chlorophenyl)-4,4-dimethylcyclohex-1-en-1-yl]methyl]piperazin-1-yl)-2-[12,12-difluoro-14-oxa-2,4,10-triazatricyclo[7.5.0.0^[3,7]]tetradeca-1(9),2,5,7-tetraen-10-yl]-N-(3-nitro-4-[[(oxan-4-yl)methyl]amino]benzenesulfonyl)benzamide], for which the half-inhibitory concentration (IC50) in assay [1] was determined as 0.95 nM.

Turning to `CC1(C)CCC(CN2CCN(c3ccc(C(=O)NS(=O)(=O)c4ccc(NC[C@H]5COCCO5)c([N+](=O)[O-])c4)c(N4CCCOc5nc6[nH]ccc6cc54)c3)CC2)=C(c2ccc(O)cc2)C1` [Example 38, N-(4-[[(2S)-1,4-dioxan-2-ylmethyl]amino]-3-nitrobenzenesulfonyl)-4-(4-[[2-(4-hydroxyphenyl)-4,4-dimethylcyclohex-1-en-1-yl]methyl]piperazin-1-yl)-2-[14-oxa-2,4,10-triazatricyclo[7.5.0.0^[3,7]]tetradeca-1(9),2,5,7-tetraen-10-yl]benzamide], the half-maximal inhibitory concentration (IC50) on BCL-2 turned out to be 47 nM.

Take `CC1(C)CCC(CN2CCN(c3ccc(C(=O)NS(=O)(=O)c4ccc(NC[C@H]5COCCO5)c([N+](=O)[O-])c4)c(N4CCCOc5nc(N)ccc54)c3)CC2)=C(c2ccc(Cl)cc2)C1` [Example 39, 2-[7-amino-2H,3H,4H-pyrido[2,3-b][1,4]oxazepin-1-yl]-4-(4-[[2-(4-chlorophenyl)-4,4-dimethylcyclohex-1-en-1-yl]methyl]piperazin-1-yl)-N-(4-[[(2S)-1,4-dioxan-2-ylmethyl]amino]-3-nitrobenzenesulfonyl)benzamide]: the results for the 50% inhibitory concentration (IC50) (in assay [1]; on BCL-2 (setting [2])) were 544 nM and 1.5 nM, respectively.

In assay [1], `CC1(C)CCC(CN2CCN(c3ccc(C(=O)NS(=O)(=O)c4ccc(NCC5CCOCC5)c([N+](=O)[O-])c4)c(N4CCC(c5ccccn5)Oc5nc6[nH]ccc6cc54)c3)CC2)=C(c2ccc(Cl)cc2)C1` (stereo not shown) [Example 40, 4-(4-[[2-(4-chlorophenyl)-4,4-dimethylcyclohex-1-en-1-yl]methyl]piperazin-1-yl)-N-[3-nitro-4-[(oxan-4-ylmethyl)amino]benzenesulfonyl]-2-[13-(pyridin-2-yl)-14-oxa-2,4,10-triazatricyclo[7.5.0.0^[3,7]]tetradeca-1(9),2,5,7-tetraen-10-yl]benzamide hydrochloride] came in with a concentration for half-maximal inhibition (IC50) of 5.6 nM.

As for `CC1(C)CCC(CN2CCN(c3ccc(C(=O)NS(=O)(=O)c4ccc(NC[C@H]5COCCO5)c([N+](=O)[O-])c4)c(N4CCOCc5nc6[nH]ccc6cc54)c3)CC2)=C(c2ccc(Cl)cc2)C1` [Example 41, 4-(4-[[2-(4-chlorophenyl)-4,4-dimethylcyclohex-1-en-1-yl]methyl]piperazin-1-yl)-N-(4-[[(2S)-1,4-dioxan-2-ylmethyl]amino]-3-nitrobenzenesulfonyl)-2-[13-oxa-2,4,10-triazatricyclo[7.5.0.0^[3,7]]tetradeca-1(9),2,5,7-tetraen-10-yl]benzamide hydrochloride], the figures for the IC50 (in assay [1]; at BCL-2) were 1.1 nM and 0.1 nM, respectively.

With `CNc1ccc2c(n1)OCCCN2c1cc(N2CCN(CC3=C(c4ccc(Cl)cc4)CC(C)(C)CC3)CC2)ccc1C(=O)NS(=O)(=O)c1ccc(NC[C@H]2COCCO2)c([N+](=O)[O-])c1` [Example 42, 4-(4-[[2-(4-chlorophenyl)-4,4-dimethylcyclohex-1-en-1-yl]methyl]piperazin-1-yl)-N-(4-[[(2S)-1,4-dioxan-2-ylmethyl]amino]-3-nitrobenzenesulfonyl)-2-[7-(methylamino)-2H,3H,4H-pyrido[2,3-b][1,4]oxazepin-1-yl]benzamide hydrochloride], the 50% inhibitory concentration (IC50) in assay [1] was above 1000 nM; at BCL-2 (setting [2]) it was 4.1 nM.

For `CC1(C)CCC(CN2CCN(c3ccc(C(=O)NS(=O)(=O)c4ccc(NCCN5CCN(CCOCCOCCNc6cccc7c6C(=O)N(C6CCC(=O)NC6=O)C7=O)CC5)c([N+](=O)[O-])c4)c(N4CCCOc5nc6[nH]ccc6cc54)c3)CC2)=C(c2ccc(Cl)cc2)C1` (stereo not shown) [Example 50, 4-(4-[[2-(4-chlorophenyl)-4,4-dimethylcyclohex-1-en-1-yl]methyl]piperazin-1-yl)-N-(4-[[2-(4-[2-[2-(2-[[2-(2,6-dioxopiperidin-3-yl)-1,3-dioxoisoindol-4-yl]amino]ethoxy)ethoxy]ethyl]piperazin-1-yl)ethyl]amino]-3-nitrobenzenesulfonyl)-2-[14-oxa-2,4,10-triazatricyclo[7.5.0.0^[3,7]]tetradeca-1(9),2,5,7-tetraen-10-yl]benzamide], the results for the IC50 (in assay [1]; on BCL-2) were 43 nM and 0.6 nM, respectively.

For `CC1(C)CCC(CN2CCN(c3ccc(C(=O)NS(=O)(=O)c4ccc(NCCOCCOCCOCCOCCNc5cccc6c5C(=O)N(C5CCC(=O)NC5=O)C6=O)c([N+](=O)[O-])c4)c(N4CCCOc5nc6[nH]ccc6cc54)c3)CC2)=C(c2ccc(Cl)cc2)C1` (stereo not shown) [Example 51, 4-(4-[[2-(4-chlorophenyl)-4,4-dimethylcyclohex-1-en-1-yl]methyl]piperazin-1-yl)-N-[4-(15-[[2-(2,6-dioxopiperidin-3-yl)-1,3-dioxoisoindol-4-yl]amino]-4,7,10,13-tetraoxa-1-azapentadecan-1-yl)-3-nitrobenzenesulfonyl]-2-[14-oxa-2,4,10-triazatricyclo[7.5.0.0^[3,7]]tetradeca-1(9),2,5,7-tetraen-10-yl]benzamide], the figures for the IC50 (in assay [1]; at BCL-2 (setting [2])) were 62 nM and 0.9 nM, respectively.

For the compound `CC1(C)CCC(CN2CCN(c3ccc(C(=O)NS(=O)(=O)c4ccc(NC[C@H]5COCCO5)c([N+](=O)[O-])c4)c(N4C(=O)COc5nc6[nH]ccc6cc54)c3)CC2)=C(c2ccc(Cl)cc2)C1` [Example 76, 4-(4-[[2-(4-chlorophenyl)-4,4-dimethylcyclohex-1-en-1-yl]methyl]piperazin-1-yl)-N-(4-[[(2S)-1,4-dioxan-2-ylmethyl]amino]-3-nitrobenzenesulfonyl)-2-[11-oxo-13-oxa-2,4,10-triazatricyclo[7.4.0.0[3,7]]trideca-1(9),2,5,7-tetraen-10-yl]benzamide], in assay [1], half-maximal inhibition (IC50) was put at 54 nM.

Source of the values: patent US12220419B2, “BCL-2 inhibitors” (Newave Pharmaceutical Inc., priority 2018, dated 2025).
